{"source": "paper PMC6338644", "about": "(The FASEB Journal, 2018)", "key": {"[1]": {"molecular_target": "T1, SHIP2 immunoprecipitated from the lysates of hepatoma cells (Rattus norvegicus, UniProt Q9WVR3)", "T1 construct": "endogenous in cells; host or cells: Fao hepatoma cells", "T1 sequence (Q9WVR3 1-1257)": "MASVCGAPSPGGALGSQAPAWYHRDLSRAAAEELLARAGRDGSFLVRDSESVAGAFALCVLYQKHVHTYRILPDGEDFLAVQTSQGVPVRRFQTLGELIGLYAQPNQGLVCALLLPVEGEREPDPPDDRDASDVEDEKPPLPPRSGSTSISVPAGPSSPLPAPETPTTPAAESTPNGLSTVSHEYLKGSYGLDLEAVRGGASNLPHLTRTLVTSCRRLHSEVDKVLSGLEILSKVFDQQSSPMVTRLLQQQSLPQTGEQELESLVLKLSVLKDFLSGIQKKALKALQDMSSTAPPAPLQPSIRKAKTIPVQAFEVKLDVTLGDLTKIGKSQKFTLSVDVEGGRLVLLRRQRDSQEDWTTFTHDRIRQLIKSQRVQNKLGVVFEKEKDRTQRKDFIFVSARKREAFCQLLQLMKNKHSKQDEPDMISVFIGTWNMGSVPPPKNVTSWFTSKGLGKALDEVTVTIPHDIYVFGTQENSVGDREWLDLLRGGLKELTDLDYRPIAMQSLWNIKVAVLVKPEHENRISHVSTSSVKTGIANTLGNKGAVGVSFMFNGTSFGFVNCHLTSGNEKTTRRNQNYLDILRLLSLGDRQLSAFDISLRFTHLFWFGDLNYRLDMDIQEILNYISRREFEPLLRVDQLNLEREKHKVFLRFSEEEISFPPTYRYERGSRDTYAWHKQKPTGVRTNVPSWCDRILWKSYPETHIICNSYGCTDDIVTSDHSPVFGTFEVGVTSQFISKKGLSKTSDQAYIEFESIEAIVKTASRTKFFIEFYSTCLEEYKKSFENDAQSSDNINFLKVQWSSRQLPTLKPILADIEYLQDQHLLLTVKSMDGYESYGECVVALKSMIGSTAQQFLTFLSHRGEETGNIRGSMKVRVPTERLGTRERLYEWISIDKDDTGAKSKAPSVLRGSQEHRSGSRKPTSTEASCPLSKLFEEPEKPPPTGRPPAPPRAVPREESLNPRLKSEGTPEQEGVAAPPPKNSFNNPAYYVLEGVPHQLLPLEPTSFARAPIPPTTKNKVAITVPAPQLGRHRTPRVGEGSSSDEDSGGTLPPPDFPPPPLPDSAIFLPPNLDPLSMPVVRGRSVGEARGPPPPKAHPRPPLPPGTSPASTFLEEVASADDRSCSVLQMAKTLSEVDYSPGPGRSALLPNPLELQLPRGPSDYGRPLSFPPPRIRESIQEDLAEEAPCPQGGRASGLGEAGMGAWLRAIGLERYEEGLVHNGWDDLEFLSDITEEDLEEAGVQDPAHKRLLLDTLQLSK", "assay": "Activity of SHIP2 immunoprecipitated from hepatoma cells", "format": "cell-based", "conditions": "10 µM, 20–24 h", "quoted_text": "(§4) Immunocomplexes were bound to protein G-Sepharose beads at +4°C for 2 h and washed 3 times with malachite green phosphate assay buffer {10 mM 4-(2-hydroxyethyl)-1-piperazineethanesulfonic acid (HEPES), pH 7.25, 6 mM MgCl2, 0.1% 3-[(3-cholamidopropyl)dimethylammonio]-1-propanesulfonate (CHAPS), 250 mM sucrose, and 0.25 mM EDTA}.\n(§5) The catalytic activity of SHIP2 immunoprecipitated from cell and tissue lysates was determined as in Saurus et al. ([22]), omitting SHIP2 inhibitors in lysis buffer, immunoprecipitation reaction, wash, and assay buffers."}, "[2]": {"tested_on": "db/db mice", "conditions": "cited from earlier work"}, "[3]": {"tested_on": "Immortalized human podocytes", "assay": "Glucose uptake assay in podocytes", "format": "cell-based", "protocol": "(§1) Immortalized human podocytes were maintained as previously described ([10]). […] Podocytes were lysed as previously described ([21]).\n(§2) Glucose uptake assay and On-Cell Western were performed essentially as in Tolvanen et al. ([19]). […] Cells were transferred on ice; incubated with anti-HA IgG in serum-free medium for 15 min, followed by additional incubation in fresh cell differentiation medium for 15 min at +37°C; and fixed with 2% paraformaldehyde for 20 min. Cells were incubated with IRDye 800 donkey anti-mouse IgG and nuclear marker DRAQ-5 (Thermo Fisher Scientific). Detection and quantitation were performed with the Odyssey Infrared Imager (Li-Cor Biosciences, Lincoln, NE, USA).\n(§3) L6-GLUT4 myotubes overexpressing SHIP2 were treated and glucose uptake performed as described in C. […] Time point 15 min indicates the amount of HA detected on the cells after 15 min internalization."}, "[4]": {"tested_on": "GLUT1 and GLUT4 protein expression", "assay": "Immunoblot of GLUT1 and GLUT4 expression in myotubes and podocytes", "format": "cell-based, rat, human", "conditions": "2 mM, 20–24 h", "quoted_text": "Rat L6 myoblasts (American Type Culture Collection, Manassas, VA, USA) and hepatoma cells (Fao Cells, Culture Collection; Public Health England, Salisbury, United Kingdom) were maintained according to the provider’s instructions. L6 myoblasts stably expressing hemagglutinin-GLUT4-green fluorescent protein (HA-GLUT4-GFP, referred to as L6-GLUT4) were generated, as previously described ([19]). Immortalized human podocytes were maintained as previously described ([10]). Lentiviral infection was used to overexpress or knock down transiently SHIP2 in cultured cells on d 10–12 of differentiation for 48 h (basal level) or 72 h (insulin stimulation), as previously described ([10], [20]). Human pLKO1-short hairpin RNA (shRNA) SHIP2 ([sequence]) was obtained from Functional Genomics Unit, University of Helsinki. […] Podocytes were lysed as previously described ([21]). Myotubes, hepatoma cells, and tissues were lysed and immunoblotting performed as in Tolvanen et al. ([19]) with anti-SHIP2 and anti-AMPK (Santa Cruz Biotechnology, Dallas, TX, USA); anti-phospho (p)Akt (S473), anti-pAMPK (Thr172), anti-AMPK, and anti-cleaved caspase-3 (Cell Signaling Technology, Danvers, MA, USA); anti-Pan Akt (R&D Systems, Minneapolis, MN, USA); anti-tubulin, anti-Glut4, and anti-Glut1 (MilliporeSigma, Burlington, MA, USA); and anti-actin (Abcam, Cambridge, United Kingdom)."}, "[5]": {"molecular_target": "T2, purified His-tagged SHIP2 phosphatase domain (Homo sapiens, UniProt O15357)", "T2 construct": "we produced a His-tagged human SHIP2 phosphatase domain; His; made in house", "T2 sequence (O15357 419-732 limits assumed)": "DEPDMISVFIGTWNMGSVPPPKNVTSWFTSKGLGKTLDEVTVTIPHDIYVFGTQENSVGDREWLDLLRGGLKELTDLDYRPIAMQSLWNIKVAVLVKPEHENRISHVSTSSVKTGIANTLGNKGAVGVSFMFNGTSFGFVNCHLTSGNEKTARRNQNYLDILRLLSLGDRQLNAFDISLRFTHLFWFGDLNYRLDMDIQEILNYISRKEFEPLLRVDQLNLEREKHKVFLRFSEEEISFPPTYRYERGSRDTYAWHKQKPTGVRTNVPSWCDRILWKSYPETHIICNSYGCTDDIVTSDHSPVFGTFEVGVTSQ", "assay": "Manual malachite green phosphate assay (96-well), purified SHIP2 phosphatase domain", "format": "biochemical", "conditions": "10 µM; 100 ng enzyme; manual assay (Fig. 1B)", "quoted_text": "as §4\nThe catalytic activities of the recombinant SHIP2 and SHIP1 phosphatase domains were determined by malachite green phosphate assay at the High Throughput Biomedicine Unit (University of Helsinki) using D-myo-PI(3,4,5)P3 (Echelon Biosciences, Salt Lake City, UT, USA). Different volumes, resulting in desired final concentrations of inhibitors, were transferred to the wells of 384-well plates by using the Echo550 acoustic dispenser (Labcyte, San Jose, CA, USA). Recombinant protein (100 ng) in reaction buffer {10 mM HEPES, pH 7.25, 6 mM MgCl2, 0.1% CHAPS, 250 mM sucrose, and 0.25 mM EDTA} was placed in each well (7.5 µl), and the plates were preincubated at room temperature for 15 min. The phosphatase reaction was started by adding PI(3,4,5)P3 diluted in the reaction buffer (7.5 µl) to each well to reach a final concentration of 100 µM PI(3,4,5)P3 in the 15 µl reaction volume. […] Absorbance was measured at 620 nm using a Pherastar FS plate reader (BMG Labtech, Offenburg, Germany). […]\nThe catalytic activity of SHIP2 was measured by manual malachite green phosphate assay. […]"}, "[6]": {"tested_on": "Akt phosphorylation (pAkt S473)", "assay": "Immunoblot of Akt phosphorylation in cultured cells", "format": "cell-based, rat, human", "conditions": "2 mM, 20–24 h", "quoted_text": "Lentiviral infection was used to overexpress or knock down transiently SHIP2 in cultured cells on d 10–12 of differentiation for 48 h (basal level) or 72 h (insulin stimulation), as previously described ([10], [20]). […] Podocytes were lysed as previously described ([21]). Myotubes, hepatoma cells, and tissues were lysed and immunoblotting performed as in Tolvanen et al. ([19]) with anti-SHIP2 and anti-AMPK (Santa Cruz Biotechnology, Dallas, TX, USA); anti-phospho (p)Akt (S473), anti-pAMPK (Thr172), anti-AMPK, and anti-cleaved caspase-3 (Cell Signaling Technology, Danvers, MA, USA); anti-Pan Akt (R&D Systems, Minneapolis, MN, USA); anti-tubulin, anti-Glut4, and anti-Glut1 (MilliporeSigma, Burlington, MA, USA); and anti-actin (Abcam, Cambridge, United Kingdom).\nCell lysates were subjected to immunoblot analysis with anti-SHIP2, anti-cleaved caspase-3, and anti-actin IgGs. […] Cell lysates were subjected to immunoblot analysis with anti-SHIP2, anti-Akt, anti-pAkt, and anti-actin IgGs. G) Quantification of pAkt levels in F presented as pAkt/Akt after normalizing to actin. Data are presented as the mean ± SD of 3–5 independent experiments. *P ≤ 0.05, **P ≤ 0.01, ***P ≤ 0.001 (Student’s t test)."}, "[7]": {"tested_on": "L6-GLUT4 myotubes", "assay": "Glucose uptake assay in L6-GLUT4 myotubes", "format": "cell-based, rat", "conditions": "metformin 2 mM", "protocol": "as §1, §2, §3"}, "[8]": {"tested_on": "HA-GLUT4-GFP at the plasma membrane of L6-GLUT4 cells", "assay": "On-Cell Western and HA-GLUT4-GFP endocytosis assay in L6-GLUT4 cells", "format": "cell-based, rat", "conditions": "20–24 h", "protocol": "as §2\nC) Knockdown of SHIP2 reduces metformin-induced glucose uptake. […] L6-GLUT4 myotubes overexpressing SHIP2 were treated and glucose uptake performed as described in C. […] Time point 15 min indicates the amount of HA detected on the cells after 15 min internalization."}, "[9]": {"molecular_target": "SHIP2 in tissues of db/db mice (Mus musculus, UniProt Q6P549)", "sequence (Q6P549 whole entry)": "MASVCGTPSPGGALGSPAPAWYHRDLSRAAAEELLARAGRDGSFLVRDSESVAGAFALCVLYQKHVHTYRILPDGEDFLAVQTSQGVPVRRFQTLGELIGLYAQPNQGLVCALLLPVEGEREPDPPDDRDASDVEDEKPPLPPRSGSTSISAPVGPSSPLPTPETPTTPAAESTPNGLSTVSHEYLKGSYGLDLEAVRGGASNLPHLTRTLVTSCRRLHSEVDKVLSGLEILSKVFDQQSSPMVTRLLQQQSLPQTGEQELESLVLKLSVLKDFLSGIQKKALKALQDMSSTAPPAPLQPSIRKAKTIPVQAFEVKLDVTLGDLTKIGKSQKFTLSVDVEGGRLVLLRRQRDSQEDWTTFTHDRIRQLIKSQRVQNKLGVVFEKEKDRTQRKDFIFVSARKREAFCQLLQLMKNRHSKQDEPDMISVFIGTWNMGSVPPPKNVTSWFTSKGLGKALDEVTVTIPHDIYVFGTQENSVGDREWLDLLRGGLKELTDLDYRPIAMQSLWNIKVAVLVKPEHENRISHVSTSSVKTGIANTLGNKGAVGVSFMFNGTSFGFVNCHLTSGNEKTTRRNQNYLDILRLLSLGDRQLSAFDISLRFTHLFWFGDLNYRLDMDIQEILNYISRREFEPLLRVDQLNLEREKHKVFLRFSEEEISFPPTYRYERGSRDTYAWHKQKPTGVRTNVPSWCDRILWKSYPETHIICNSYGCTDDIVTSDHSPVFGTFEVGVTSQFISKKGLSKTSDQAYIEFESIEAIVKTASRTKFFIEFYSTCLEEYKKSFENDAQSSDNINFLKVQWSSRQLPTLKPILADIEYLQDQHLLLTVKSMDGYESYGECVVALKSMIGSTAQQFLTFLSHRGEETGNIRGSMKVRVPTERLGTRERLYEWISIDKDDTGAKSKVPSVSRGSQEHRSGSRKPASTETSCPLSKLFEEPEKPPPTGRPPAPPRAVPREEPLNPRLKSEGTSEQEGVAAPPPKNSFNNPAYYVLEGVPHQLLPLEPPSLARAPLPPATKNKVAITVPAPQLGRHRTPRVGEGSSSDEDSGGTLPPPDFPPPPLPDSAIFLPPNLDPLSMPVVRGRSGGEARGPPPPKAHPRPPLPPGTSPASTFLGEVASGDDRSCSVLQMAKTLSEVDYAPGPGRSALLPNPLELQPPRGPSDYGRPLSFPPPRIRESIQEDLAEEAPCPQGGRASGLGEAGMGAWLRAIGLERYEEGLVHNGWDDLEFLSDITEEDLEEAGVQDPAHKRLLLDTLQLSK", "conditions": "250 mg/kg per day, 12 d", "quoted_text": "as §5\nAt the end of the experiment, mice were euthanized. Freshly dissected skeletal muscle, kidney, and liver tissues were snap frozen in liquid nitrogen, embedded in Tissue-Tek Optimal Cutting Temperature (OCT) compound (Sakura Finetek, Alphen aan den Rijn, The Netherlands), or fixed in 10% formalin, followed by embedding in paraffin.\nSHIP2 was immunoprecipitated from tissue lysates and its catalytic activity measured by malachite green phosphate assay (n = 6–8)."}, "[10]": {"tested_on": "PCK1 and G6Pase mRNA", "assay": "Quantitative RT-PCR of gluconeogenesis genes in db/db mice", "format": "in vivo, mouse", "conditions": "250 mg/kg per day, 12 d", "description": "At the end of the experiment, mice were euthanized. […]\nThe expression levels of the rate-\nanalyzed by quantitative RT-PCR (n=6).\ninternal controls for liver and kidney, respectively. The bars show the mean expres sion in arbitrary"}, "[11]": {"conditions": "20–24 h, insulin 100 nM, 15 min"}}, "note": "Structures can show the parent of a compound that is named as a salt.", "data": [{"smiles": "C[C@H](NC(=O)c1sccc1OCc1ccc(Cl)cc1)c1ccccc1", "note": "[AS1949490]", "values": [{"measurement": "inhibition of SHIP2 in hepatoma cells", "setting": "[1]", "value": "did not inhibit"}, {"measurement": "PCK1 expression in db/db mice", "setting": "[2]", "value": "reduce"}, {"measurement": "blood glucose in db/db mice", "setting": "[2]; short-term treatment", "value": "reduced"}, {"measurement": "insulin sensitivity in db/db mice", "setting": "[2]; short-term treatment", "value": "improved"}]}, {"smiles": "CN(C)C(=N)N=C(N)N", "note": "[Metformin, 1,1-Dimethylbiguanide hydrochloride]", "values": [{"measurement": "increase in glucose uptake in podocytes", "setting": "[3]", "value": 52, "unit": "%"}, {"measurement": "increase in glucose uptake in podocytes, metformin together with insulin", "setting": "[3]", "value": 80, "unit": "%"}, {"measurement": "effect on GLUT1 and GLUT4 protein expression levels", "setting": "[4]", "value": "no effect"}, {"measurement": "reduction of catalytic activity of recombinant SHIP2 phosphatase domain", "setting": "[5]", "value": 44, "unit": "%"}, {"measurement": "insulin-induced Akt phosphorylation in SHIP2-overexpressing podocytes", "setting": "[6]; insulin 200 nM, 15 min", "value": "restored its activity"}, {"measurement": "Akt phosphorylation (activity) in basal state", "setting": "[6]; myotubes and podocytes", "value": "did not increase"}, {"measurement": "increase in insulin-stimulated glucose uptake, SHIP2 knockdown", "setting": "[7]; SHIP2 shRNA, 20–24 h, insulin 100 nM, 15 min", "value": 109, "unit": "%"}, {"measurement": "increase in glucose uptake in L6-GLUT4 myotubes", "setting": "[7]; control shRNA, 20–24 h, insulin 100 nM, 15 min", "value": 148, "unit": "%"}, {"measurement": "increase in glucose uptake in empty vector-transfected myotubes", "setting": "[7]; [11]", "value": 155, "unit": "%"}, {"measurement": "increase in insulin-stimulated glucose uptake, SHIP2 overexpression", "setting": "[7]; [11]", "value": 76, "unit": "%"}, {"measurement": "increase in glucose uptake in L6-GLUT4 cells", "setting": "[7]; 20–24 h, serum-starved", "value": 218, "unit": "%"}, {"measurement": "glucose uptake in L6-GLUT4 cells, metformin together with insulin", "setting": "[7]; 20–24 h plus insulin 100 nM, 15 min", "value": "did not have an additive effect"}, {"measurement": "increase in amount of HA-GLUT4-GFP on the PM", "setting": "[8]; L6-GLUT4 cells, basal conditions, 2 mM", "value": 40, "unit": "%"}, {"measurement": "decrease in amount of HA-GLUT4-GFP on the PM after 15 min uptake (endocytosis)", "setting": "[8]; metformin 2 mM", "value": 10, "unit": "%"}, {"measurement": "SHIP2 activity in the liver", "setting": "[9]", "value": "not reduced"}, {"measurement": "decrease in enzymatic activity of SHIP2 in kidney", "setting": "[9]", "value": 40, "unit": "%"}, {"measurement": "G6Pase mRNA level in kidney", "setting": "[10]", "value": "increased"}, {"measurement": "G6Pase mRNA level in liver", "setting": "[10]", "value": "decreased"}, {"measurement": "PCK1 mRNA level in kidney", "setting": "[10]", "value": "increased"}, {"measurement": "PCK1 mRNA level in liver", "setting": "[10]", "value": "decreased"}]}]}
